Measurements as given in patent publication US12433952B2, “Antibody-drug conjugates targeting folate receptor alpha and methods of use” (ZYMEWORKS BC INC., priority 2022, dated 2025).
Read-outs that look alike come from different tables or passages of the source.

Experiments:
Assay in all cases: In vitro cytotoxicity of camptothecin analogues (CellTiter-Glo)
Type in all cases: cell-based
Calu-3 (lung cancer) = conditions: Homo sapiens, Calu-3, 96 h, read-out: pIC50 Calu-3 (converted)
Method: (§1) Cytotoxicity of the camptothecin analogues was assessed in vitro as follows.
(§2) In vitro potency was assessed on multiple cancer cell lines: SK-BR-3 (breast cancer), SKOV-3 (ovarian cancer), Calu-3 (lung cancer), ZR-75-1 (breast cancer) and MDA-MB-468 (breast cancer). Serial dilutions of camptothecin analogues were prepared in RPMI 1640+10% FBS, and 20 μL of each dilution was added to 384-well plates. Cells cultured in log-phase growth were detached by brief incubation in 0.05% Trypsin and resuspended in respective culturing media at 20,000 cells/mL (with the exception of ZR-75 cells, which were resuspended at 10,000 cells/mL). 50 μL of cell suspension was then added to the plates containing test articles. Cells were incubated with test articles for 4 d at 37° C. (with the exception of ZR-75 cells, which were incubated for 5 d). Growth inhibition was assessed by CellTiter-Glo® (Promega Corporation, Madison, WI) and luminescence was measured on a plate reader. IC50 values were determined by GraphPad Prism (GraphPad Software, San Diego CA).

[1] = system: MDA-MB-468 (breast cancer); conditions: Homo sapiens, MDA-MB-468, 96 h, read-out: pIC50 MDA-MB-468 (converted)
Method: as §1, §2

SK-BR-3 (breast cancer) = conditions: Homo sapiens, SK-BR-3, 96 h, read-out: pIC50 SKBR-3 (converted)
Method: as §1, §2

SKOV-3 (ovarian cancer) = conditions: Homo sapiens, SK-OV-3, 96 h, read-out: pIC50 SKOV-3 (converted)
Method: as §1, §2

ZR-75-1 (breast cancer) = conditions: Homo sapiens, ZR-75-1, 120 h, read-out: pIC50 ZR-75 (converted)
Method: as §1, §2

Compound	IC50 (Calu-3 (lung cancer); 4 d incubation) [nM]	IC50 ([1]; 4 d incubation) [nM]	IC50 (SK-BR-3 (breast cancer); 4 d incubation) [nM]	IC50 (SKOV-3 (ovarian cancer); 4 d incubation) [nM]	IC50 (ZR-75-1 (breast cancer); 5 d incubation) [nM]	IC50 (Calu-3 (lung cancer)) [nM]	IC50 [1] [nM]	IC50 (SK-BR-3 (breast cancer)) [nM]	IC50 (SKOV-3 (ovarian cancer)) [nM]	IC50 (ZR-75-1 (breast cancer)) [nM]
CC[C@@]1(O)C(=O)OCc2c1cc1n(c2=O)Cc2c-1nc1cc(F)c(C)cc1c2CN1CCNCC1 [Compound 112, (S)-4-ethyl-8-fluoro-4-hydroxy-9-methyl-11-(piperazin-1-ylmethyl)-1,12-dihydro-14H-pyrano[3′,4′:6,7]indolizino[1,2-b]quinoline-3,14(4H)-dione]	17.4	13.5	6.61	20	12					
CC[C@@]1(O)C(=O)OCc2c1cc1n(c2=O)Cc2c-1nc1cc(F)c(N)cc1c2CNS(C)(=O)=O [Compound 146, (S)—N-((9-amino-4-ethyl-8-fluoro-4-hydroxy-3,14-dioxo-3,4,12,14-tetrahydro-1H-pyrano[3′,4′:6,7]indolizino[1,2-b]quinolin-11-yl)methyl)methanesulfonamide]	4.37	4.37	1.74	11.2	6.03					
CC[C@@]1(O)C(=O)OCc2c1cc1n(c2=O)Cc2c-1nc1cc(F)c(N)cc1c2CN1CCN(C)CC1 [Compound 149, (S)-9-amino-4-ethyl-8-fluoro-4-hydroxy-11-((4-methylpiperazin-1-yl)methyl)-1,12-dihydro-14H-pyrano[3′,4′:6,7]indolizino[1,2-b]quinoline-3,14(4H)-dione]	6.31	6.31	3.16	10	1.82					
CC[C@@]1(O)C(=O)OCc2c1cc1n(c2=O)Cc2c-1nc1cc(F)c(C)cc1c2CNC(=O)NCCO [Compound 136, (S)-1-((4-ethyl-8-fluoro-4-hydroxy-9-methyl-3,14-dioxo-3,4,12,14-tetrahydro-1H-pyrano[3′,4′:6,7]indolizino[1,2-b]quinolin-11-yl)methyl)-3-(2-hydroxyethyl)urea]	26.3	6.31	3.98	51.3	5.01					
CC[C@@]1(O)C(=O)OCc2c1cc1n(c2=O)Cc2c-1nc1cc(F)c(N)cc1c2CN1CCOCC1 [Compound 142, (S)-9-amino-4-ethyl-8-fluoro-4-hydroxy-11-(morpholinomethyl)-1,12-dihydro-14H-pyrano[3′,4′:6,7]indolizino[1,2-b]quinoline-3,14(4H)-dione]	1.29	1.29	0.631	1.29	0.759					
CC[C@@]1(O)C(=O)OCc2c1cc1n(c2=O)Cc2c-1nc1cc(F)c(C)cc1c2CNS(=O)(=O)c1ccc(N)cc1 [Compound 127, (S)-4-amino-N-((4-ethyl-8-fluoro-4-hydroxy-9-methyl-3,14-dioxo-3,4,12,14-tetrahydro-1H-pyrano[3′,4′:6,7]indolizino[1,2-b]quinolin-11-yl)methyl)benzenesulfonamide]						9.33	3.8	3.31	14.5	5.25
CC[C@@]1(O)C(=O)OCc2c1cc1n(c2=O)Cc2c-1nc1cc(F)c(N)cc1c2CNC(=O)OC [Compound 143, Methyl (S)-((9-amino-4-ethyl-8-fluoro-4-hydroxy-3,14-dioxo-3,4,12,14-tetrahydro-1H-pyrano[3′,4′:6,7]indolizino[1,2-b]quinolin-11-yl)methyl)carbamate]	0.708	0.708	0.389	2.82	0.851					
CC[C@@]1(O)C(=O)OCc2c1cc1n(c2=O)Cc2c-1nc1cc(F)c(OC)cc1c2CN1CCN(S(=O)(=O)c2ccccc2)CC1 [Compound 103, (S)-4-ethyl-8-fluoro-4-hydroxy-9-methoxy-11-((4-(phenylsulfonyl)piperazin-1-yl)methyl)-1,12-dihydro-14H-pyrano[3′,4′:6,7]indolizino[1,2-b]quinoline-3,14(4H)-dione]	2.34	4.68	1.7	4.37	2.4					
CC[C@@]1(O)C(=O)OCc2c1cc1n(c2=O)Cc2c-1nc1cc(F)c(OC)cc1c2CN1CCN(S(=O)(=O)c2ccc(N)cc2)CC1 [Compound 105, (S)-11-((4-((4-aminophenyl)sulfonyl)piperazin-1-yl)methyl)-4-ethyl-8-fluoro-4-hydroxy-9-methoxy-1,12-dihydro-14H-pyrano[3′,4′:6,7]indolizino[1,2-b]quinoline-3,14(4H)-dione]	4.47	2.75	3.63	10.7	3.09					
CC[C@@]1(O)C(=O)OCc2c1cc1n(c2=O)Cc2c-1nc1cc(F)c(C)cc1c2CN1CCN(C(=O)OC(C)(C)C)CC1 [Compound 111, tert-butyl (S)-4-((4-ethyl-8-fluoro-4-hydroxy-9-methyl-3,14-dioxo-3,4,12,14-tetrahydro-1H-pyrano[3′,4′:6,7]indolizino[1,2-b]quinolin-11-yl)methyl)piperazine-1-carboxylate]	19.5	28.8	8.51	16.6	9.12					
CC[C@@]1(O)C(=O)OCc2c1cc1n(c2=O)Cc2c-1nc1cc(F)c(N)cc1c2CNC(=O)NC [Compound 144, (S)-1-((9-amino-4-ethyl-8-fluoro-4-hydroxy-3,14-dioxo-3,4,12,14-tetrahydro-1H-pyrano[3′,4′:6,7]indolizino[1,2-b]quinolin-11-yl)methyl)-3-methylurea]	22.4	22.4	0.794	69.2	13.2					
CC[C@@]1(O)C(=O)OCc2c1cc1n(c2=O)Cc2c-1nc1cc(F)c(C)cc1c2CNC(=O)NC [Compound 132, (S)-1-((4-ethyl-8-fluoro-4-hydroxy-9-methyl-3,14-dioxo-3,4,12,14-tetrahydro-1H-pyrano[3′,4′:6,7]indolizino[1,2-b]quinolin-11-yl)methyl)-3-methylurea]	51.3	26.9	22.9	105	15.5					
CC[C@@]1(O)C(=O)OCc2c1cc1n(c2=O)Cc2c-1nc1cc(F)c(C)cc1c2CNC(=O)OCCO [Compound 139, 2-hydroxyethyl (S)-((4-ethyl-8-fluoro-4-hydroxy-9-methyl-3,14-dioxo-3,4,12,14-tetrahydro-1H-pyrano[3′,4′:6,7]indolizino[1,2-b]quinolin-11-yl)methyl)carbamate]	7.08	1.51	1.2	5.01	1.07					
CC[C@@]1(O)C(=O)OCc2c1cc1n(c2=O)Cc2c-1nc1cc(F)c(OC)cc1c2CNC(=O)NC [Compound 133, (S)-1-((4-ethyl-8-fluoro-4-hydroxy-9-methoxy-3,14-dioxo-3,4,12,14-tetrahydro-1H-pyrano[3′,4′:6,7]indolizino[1,2-b]quinolin-11-yl)methyl)-3-methylurea]	12	10.7	6.76	74.1	9.77					
CC[C@@]1(O)C(=O)OCc2c1cc1n(c2=O)Cc2c-1nc1cc(F)c(C)cc1c2CNS(=O)(=O)CCO [Compound 129, (S)—N-((4-ethyl-8-fluoro-4-hydroxy-9-methyl-3,14-dioxo-3,4,12,14-tetrahydro-1H-pyrano[3′,4′:6,7]indolizino[1,2-b]quinolin-11-yl)methyl)-2-hydroxyethane-1-sulfonamide]	5.25	3.98	3.09	20.4	2.63					
CC[C@@]1(O)C(=O)OCc2c1cc1n(c2=O)Cc2c-1nc1cc(F)c(N)cc1c2CO [Compound 141, (S)-9-amino-4-ethyl-8-fluoro-4-hydroxy-11-(hydroxymethyl)-1,12-dihydro-14H-pyrano[3′,4′:6,7]indolizino[1,2-b]quinoline-3,14(4H)-dione]	1.02	1.45	0.347	2.82	0.309					
CC[C@@]1(O)C(=O)OCc2c1cc1n(c2=O)Cc2c-1nc1cc(F)c(C)cc1c2CN1CCOCC1 [Compound 100, (S)-4-ethyl-8-fluoro-4-hydroxy-9-methyl-11-(morpholinomethyl)-1,12-dihydro-14H-pyrano[3′,4′:6,7]indolizino[1,2-b]quinoline-3,14(4H)-dione]	1.12	2.51	1.1	2.29	1.23					
